Reference: ChEMBL document CHEMBL1201862, “PubChem BioAssay data set” (2004)
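Values below derive from 48-hour exposures of cells grown in 96-well plates, with endpoints linearly interpolated between the two concentrations bracketing the appropriate inhibition level. GI50 is the concentration that inhibits growth by half.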 Active and inactive are the calls of the source. No stated cut-off is given here; in the data, active = GI50 up to about 1.1 µM and inactive = higher.

What was measured:
Test in all cases: inhibition of tumour cell growth, NCI panel, 48 h
[1] = system: HOP-62
[2] = system: OVCAR-3
[3] = system: SK-MEL-28
[4] = system: HCT-15
[5] = system: EKVX
[6] = system: SF-295
[7] = system: OVCAR-8
[8] = system: CCRF-CEM
[9] = system: IGROV-1
[10] = system: U-251
[11] = system: CAKI-1
[12] = system: HT-29
[13] = system: SW-620
[14] = system: K562
[15] = system: SK-MEL-2
[16] = system: M14
[17] = system: SR

| SMILES | GI50 [1] | GI50 [2] | GI50 [3] | GI50 [4] | GI50 [5] | GI50 [6] | GI50 [7] | GI50 [8] | GI50 [9] | GI50 [10] | GI50 [11] | GI50 [12] | GI50 [13] | GI50 [14] | GI50 [15] | GI50 [16] | GI50 [17] |
| --- | --- | --- | --- | --- | --- | --- | --- | --- | --- | --- | --- | --- | --- | --- | --- | --- | --- |
| C[N+](C)=c1[nH]c2ccccc2[nH]1 | > 100 µM (inactive) | > 100 µM (inactive) | > 100 µM (inactive) | > 100 µM | > 100 µM (inactive) | > 100 µM (inactive) | > 100 µM (inactive) | > 100 µM (inactive) | > 100 µM (inactive) | > 100 µM (inactive) | > 100 µM (inactive) | > 100 µM (inactive) | > 100 µM (inactive) | > 100 µM (inactive) | > 100 µM (inactive) | > 100 µM (inactive) |  |
| CC(=O)OC1(C)C(=O)OC1(C)C(C)=O (stereo not given) |  | > 100 µM (inactive) | > 100 µM (inactive) | > 100 µM | > 100 µM (inactive) | > 100 µM (inactive) | > 100 µM (inactive) | > 100 µM (inactive) | > 100 µM (inactive) | > 100 µM (inactive) | > 100 µM (inactive) | > 100 µM (inactive) | > 100 µM (inactive) | > 100 µM (inactive) | > 100 µM (inactive) | > 100 µM (inactive) |  |
| Cc1cccc(O)c(=O)c1 | 39.2 µM (inactive) | 11.6 µM (inactive) | 49.4 µM (inactive) | 8.3 µM | 23.6 µM (inactive) | 39.7 µM (inactive) | 19.1 µM (inactive) | 3.48 µM (inactive) | 37.4 µM (inactive) | 21.4 µM (inactive) | 63.1 µM (inactive) | 19 µM (inactive) | 16.4 µM (inactive) |  |  | 31.8 µM (inactive) | 15.2 µM (inactive) |
| COc1ccc(NC(=O)C2C(=O)N(c3ccc(OC)cc3)C(=O)/C2=N\NC(N)=O)cc1 (stereo not given) | 16.3 µM (inactive) | 34 µM (inactive) | 59.7 µM (inactive) | > 100 µM | 40.6 µM (inactive) | 37.1 µM (inactive) | 19.4 µM (inactive) |  | 19.7 µM (inactive) | 18.5 µM (inactive) | > 100 µM (inactive) | 58.6 µM (inactive) | > 100 µM (inactive) | > 100 µM (inactive) | 40.9 µM (inactive) | 92.5 µM (inactive) |  |
| C(=C1\CCC/C(=C/c2ccccc2)C1=NNc1ccccc1)/c1ccccc1 | 46.7 µM (inactive) | > 100 µM (inactive) | > 100 µM (inactive) | > 100 µM | > 100 µM (inactive) | > 100 µM (inactive) | > 100 µM (inactive) | > 100 µM (inactive) | > 100 µM (inactive) | > 100 µM (inactive) |  | > 100 µM (inactive) | > 100 µM (inactive) | > 100 µM (inactive) | > 100 µM (inactive) | > 100 µM (inactive) |  |
| CS(=O)(=O)NNS(=O)(=O)c1ccc(Br)cc1 | > 100 µM (inactive) |  | > 100 µM (inactive) | > 100 µM | > 100 µM (inactive) |  | > 100 µM (inactive) | > 100 µM (inactive) | > 100 µM (inactive) | > 100 µM (inactive) | > 100 µM (inactive) | > 100 µM (inactive) | > 100 µM (inactive) | > 100 µM (inactive) | > 100 µM (inactive) | > 100 µM (inactive) |  |
| CC1(C)CCCC2(C)[C@@H]1CC[C@@]13CC(=O)[C@@](C)(CC[C@@H]21)C3 (stereo not given in full) | 82.2 µM (inactive) | > 100 µM (inactive) | > 100 µM (inactive) | 97.5 µM |  | > 100 µM (inactive) | 85.7 µM (inactive) | > 100 µM (inactive) | > 100 µM (inactive) | 49 µM (inactive) | > 100 µM (inactive) | 30 µM (inactive) | > 100 µM (inactive) | > 100 µM (inactive) |  | 94.6 µM (inactive) | 42.5 µM (inactive) |
